According to ChEMBL document CHEMBL4304800, “C4-Phenylthio β-lactams: Effect of the chirality of the β-lactam ring on antimicrobial activity” (2019):
In brackets after ≈: the same amount, converted by molar mass. Activity calls are given as the source filed them. No cut-off for these calls is given here.

Legend:
[1] = test system: Mycobacterium tuberculosis; assay: Antitubercular activity against serine beta-lactamase producing Mycobacterium tuberculosis H37Rv after 14 days in presence of GAST/Fe medium by eleven fold serial dilution method; type: functional; details: 336 h
[2] = test system: Mycobacterium tuberculosis; assay: Antitubercular activity against clinical drug sensitive Mycobacterium tuberculosis K14b00DS after 14 days in presence of middlebrook 7H9/BSA medium by eleven fold serial dilution method; type: functional; details: 336 h
[3] = test system: Mycobacterium tuberculosis; assay: Antitubercular activity against serine beta-lactamase producing Mycobacterium tuberculosis H37Rv after 14 days in presence of middlebrook 7H9/BSA medium by eleven fold serial dilution method; type: functional; details: 336 h
[4] = test system: Moraxella catarrhalis; assay: Bactericidal activity against serine beta-lactamase producing Moraxella catarrhalis incubated in MH broth for 24 to 48 hrs by microbroth dilution method; type: functional
[5] = test system: Mycobacterium tuberculosis; assay: Antitubercular activity against serine beta-lactamase producing Mycobacterium tuberculosis H37Rv after 14 days in presence of DPPC/BSA medium by eleven fold serial dilution method; type: functional; details: 336 h
[6] = test system: Mycobacterium tuberculosis; assay: Antitubercular activity against serine beta-lactamase producing Mycobacterium tuberculosis H37Rv after 14 days in presence of Chol/BSA medium by eleven fold serial dilution method; type: functional; details: 336 h
[7] = test system: Mycobacterium tuberculosis; assay: (§1) Bactericidal activity against serine beta-lactamase producing Mycobacterium tuberculosis H37Rv assessed as reduction in microbial cell number at MIC preincubated in middlebrook 7H9 medium for 7 days and further incubated in middlebrook 7H11/BSA supplemented with OADC for 3 weeks by serial dilution based colony counting method; type: functional, organism-based
[8] = test system: Mycobacterium tuberculosis; assay: Antitubercular activity against serine beta-lactamase producing Mycobacterium tuberculosis H37Rv after 14 days in presence of Glu/BSA medium by eleven fold serial dilution method; type: functional; details: 336 h
[9] = test system: Mycobacterium tuberculosis; assay: Antitubercular activity against serine beta-lactamase producing Mycobacterium tuberculosis H37Rv after 14 days in presence of DPCC/Cas medium by eleven fold serial dilution method; type: functional; details: 336 h
[10] = test system: Mycobacterium tuberculosis; assay: Antitubercular activity against serine beta-lactamase producing Mycobacterium tuberculosis H37Rv after 14 days in presence of Glu/Cas medium by eleven fold serial dilution method; type: functional; details: 336 h
[11] = test system: Mycobacterium tuberculosis; assay: as §1, with “induction of” for “reduction in”, “kill” for “cell number”; type: functional
[12] = test system: Mycobacterium tuberculosis; assay: Bactericidal activity against non-replicating persistant form of Mycobacterium tuberculosis H37Rv assessed as minimum anaerobicidal concentration by measuring log reduction in viable microbe number at 200 ug/ml preincubated for 7 days in anaerobic condition post adaptation to decreasing oxygen levels and further incubated in middlebrook 7H11/BSA supplemented with ODAC for 4 to 5 weeks by serial dilution based assay; type: functional

| SMILES | MIC99 [1] | MIC [2] | MIC99 [3] | MBC [4] | MIC [4] | MIC [5] | MIC [6] | Activity [7] | MIC [8] | MIC [9] | MIC [10] | LCK [11] | Activity [12] |
| --- | --- | --- | --- | --- | --- | --- | --- | --- | --- | --- | --- | --- | --- |
| C[C@H](NC(=O)N1C(=O)C[C@H]1Sc1ccc(F)cc1F)c1ccccc1 | 0.7 µg/mL | 50 µg/mL | 50 µg/mL | 50 µg/mL (≈ 138 µM) | 50 µg/mL (≈ 138 µM) |  |  |  |  |  |  |  |  |
| O=C1CC(Sc2c(F)c(F)c(F)c(F)c2F)N1C(=O)NCc1ccccc1 (racemic) |  |  | 12.5 µg/mL | 6.2 µg/mL (≈ 15.4 µM) |  | 25 µg/mL | 25 µg/mL | Active | 6.25 µg/mL | 0.78 µg/mL | 1.5 µg/mL | <3 |  |
| C[C@H](NC(=O)N1C(=O)C[C@H]1Sc1c(F)c(F)c(F)c(F)c1F)c1ccccc1 | 0.7 µg/mL |  | 100 µg/mL | 50 µg/mL (≈ 120 µM) | 50 µg/mL (≈ 120 µM) |  |  | Active |  |  |  | <3 |  |
| NNC(=O)c1ccncc1 [ISONIAZID] | 0.02 µg/mL | 0.08 µg/mL | 0.07 µg/mL |  |  |  |  |  |  |  |  |  |  |
| C[C@H](NC(=O)N1C(=O)C[C@@H]1Sc1ccc(C(F)(F)F)cc1)c1ccccc1 |  | 25 µg/mL | 25 µg/mL | 200 µg/mL (≈ 507 µM) | 200 µg/mL (≈ 507 µM) |  |  |  |  |  |  |  |  |
| C[C@@H](NC(=O)N1C(=O)C[C@H]1Sc1c(F)c(F)c(F)c(F)c1F)c1ccccc1 | 0.3 µg/mL |  | > 100 µg/mL | 3.1 µg/mL (≈ 7.45 µM) | 3.1 µg/mL (≈ 7.45 µM) |  |  | Active |  |  |  | <3 | 1 log10CFU/ml |
| C[C@@H](NC(=O)N1C(=O)C[C@@H]1Sc1ccc(F)cc1F)c1ccccc1 | 0.7 µg/mL | 25 µg/mL | 25 µg/mL | 50 µg/mL (≈ 138 µM) | 50 µg/mL (≈ 138 µM) |  |  |  |  |  |  |  |  |
| O=C1CC(Sc2ccc(F)c(F)c2)N1 (racemic) |  |  | 50 µg/mL |  |  |  |  | Active |  |  |  | <3 |  |
| C[C@@H](NC(=O)N1C(=O)C[C@@H]1Sc1c(F)c(F)c(F)c(F)c1F)c1ccccc1 |  |  | > 100 µg/mL | 12.5 µg/mL (≈ 30 µM) | 12.5 µg/mL (≈ 30 µM) |  |  | Active |  |  |  | <3 | 1 log10CFU/ml |
| O=C1CC(Sc2ccc(C(F)(F)F)cc2)N1C(=O)NCc1ccccc1 (racemic) |  | 25 µg/mL | 12.5 µg/mL |  | 1.6 µg/mL (≈ 4.21 µM) | 25 µg/mL | 25 µg/mL |  | 25 µg/mL | 0.78 µg/mL | 1.5 µg/mL |  |  |
| O=C1CC(Sc2cccc(C(F)(F)F)c2)N1 (racemic) |  |  | 25 µg/mL | 1.5 µg/mL (≈ 6.07 µM) | 1.5 µg/mL (≈ 6.07 µM) | 12.5 µg/mL | 12.5 µg/mL |  | 25 µg/mL | 0.78 µg/mL | 12.5 µg/mL |  |  |
| C[C@@H](NC(=O)N1C(=O)C[C@@H]1Sc1ccc(F)cc1Cl)c1ccccc1 | 0.7 µg/mL |  | 25 µg/mL | 25 µg/mL (≈ 66 µM) | 25 µg/mL (≈ 66 µM) |  |  |  |  |  |  |  |  |
| C[C@@H](NC(=O)N1C(=O)C[C@@H]1[Se]c1ccccc1)c1ccccc1 | 12.5 µg/mL |  | 25 µg/mL | 50 µg/mL (≈ 134 µM) | 25 µg/mL (≈ 67 µM) |  |  |  |  |  |  |  |  |
| C[C@H](NC(=O)N1C(=O)C[C@@H]1Sc1ccc(F)cc1)c1ccccc1 | 12.5 µg/mL |  | 50 µg/mL | 50 µg/mL (≈ 145 µM) | 25 µg/mL (≈ 72.6 µM) |  |  |  |  |  |  |  |  |
| O=C1CC(Sc2ccc(F)cc2Cl)N1C(=O)NCc1ccccc1 (racemic) | 0.3 µg/mL |  | 37.5 µg/mL | 12.5 µg/mL (≈ 34.3 µM) |  | 12.5 µg/mL | 18.8 µg/mL |  | 25 µg/mL | 0.78 µg/mL | 1.5 µg/mL |  |  |
| C[C@H](NC(=O)N1C(=O)C[C@H]1Sc1ccc(F)cc1)c1ccccc1 | 12.5 µg/mL |  | 50 µg/mL | 50 µg/mL (≈ 145 µM) | 50 µg/mL (≈ 145 µM) |  |  |  |  |  |  |  |  |
| C[C@@H](NC(=O)N1C(=O)C[C@H]1Sc1ccc(F)cc1F)c1ccccc1 | 0.3 µg/mL | 25 µg/mL | 50 µg/mL | 12.5 µg/mL (≈ 34.5 µM) | 12.5 µg/mL (≈ 34.5 µM) |  |  |  |  |  |  |  |  |
| C[C@@H](NC(=O)N1C(=O)C[C@@H]1Sc1ccc(F)cc1)c1ccccc1 | 12.5 µg/mL |  | 50 µg/mL | 25 µg/mL (≈ 72.6 µM) | 25 µg/mL (≈ 72.6 µM) |  |  |  |  |  |  |  |  |
